From patent US20180021294A1, “Ephrin Receptor A2 (EPHA2)-Targeted Docetaxel-Generating Nano-Liposome Compositions” (Merrimack Pharmaceuticals, Inc., priority 2016, published 2018)

Columns and labels:
[1] = Coagulation parameters (PT, APTT, fibrinogen) in rats; format: in vivo, Sprague Dawley rats; details: 10 mg/kg, end of study (Day 30), vs vehicle control
Description: Blood samples collected at end of study from all the tested groups were analyzed for coagulation-related parameters including: Prothrombin time (PT), activated partial thromboplastin time (APTT) and fibrinogen levels.

SUM-159 xenograft = details: mouse, in vivo
Description: The animals received four tail vein injections, at the intervals of 7 days.
The tumor progression was monitored by palpation and caliper measurements of the tumors along the largest (length) and smallest (width) axis twice a week.

[2] = In vivo tolerability in Swiss Webster mice; details: IV
Description: Swiss Webster homozygous female mice (5-6 week old) were obtained from Charles River Laboratory. The animals received tail vein injections, at the intervals of 7 days of tested compound at tested dose (Table 5: Experimental design).
Animal weight and performance status score were monitored based on clinical observation of the mice three to four times a week (clinical observations table). Animals that experience severe toxicity are euthanized according to IACUC protocol. If more than 30% of the mice experience severe toxicity the tested dose is deemed not tolerated.

[3] = Chronic tolerability studies; details: in vivo
Description: Chronic tolerability studies were performed in rodent and non-rodent models with focus on overall animal health, as well as hematologic toxicities.

MDA-MB-231 xenograft = experiment: Drug biodistribution in MDA-MB-231 xenograft model; format: in vivo, mice; details: after 40scFv-ILs-DTXp3 50 mpk; tumor vs liver and spleen
Description: Each group consists of 3 animals. “Mpk” stand for mg of the drug per kg animal body weight.
The animals received one tail vein injection of 40scFv-ILs-DTXp3 at 50 mpk or free docetaxel at 10 mpk. At each time point, animals were sacrificed and tumor, liver and spleen were collected and flash frozen.
All tissue samples were thawed, weighed, and then mechanically homogenized using a Bullet Blender (Next Advance, Inc., Averill Park, N.Y.) in a solution of 40% acetonitrile containing 0.25% trifluoroacetic acid. The acid was included in the solvent for pH stabilization of Compound 3. […]
The homogenized tissue samples were analyzed utilizing two bioanalytical assays to individually measure Compound 3 and DTX. […] The analytes, Compound 3 and DTX, were detected in both assays by multiple reaction monitoring (MRM) in positive ion mode using electrospray ionization. The homogenized tissue samples were quantitated for Compound 3 and DTX using extracted calibration standards and quality control (QC) samples prepared by spiking Compound 3 or DTX into an acidified plasma matrix, which is a 3:2 mixture of female CD-1 lithium heparinized mouse plasma (Bioreclamation, LLC, Westbury, N.Y.) and 200 mM sodium phosphate buffer (pH 2.5). […]

[4] = Hydrolysis in buffer at 37° C., % DTX formation by HPLC; format: physicochemical
Description: A volume of a 10 mg/mL solution of drug in DMSO as needed to provide the desired concentration (typically 16 p1 to yield a 80 μg/mL solution) is placed in a glass test tube or 4 mL vial. Additional DMSO may also be added (e.g. 64 μL when using 164 of drug solution) to yield a final total DMSO concentration of 4%. The DMSO solutions are mixed by brief vortexing, and then 2 mL (20 mM) HEPES buffer for pH 7.5 and 2 mL of (20 mM) phosphate buffer for pH 2.5 is added and the mixture is vortexed again. The initial pH may be adjusted by addition of HCl or NaOH.
Then 100 μLaliquots of the buffer solution of drug are transferred into HPLC vials and incubated in a 37° C. water bath. The remaining solution is also incubated at 37° C. in 4 mL vials for monitoring of pH.
At each time point 900 μL of 0.1% trifluoroacetic acid (TFA) in acetonitrile (ACN) is added to the HPLC vial and the contents are vortexed. The vials are then placed in an autosampler rack at 4° C. for HPLC analysis.
Time zero data points are typically obtained from a solution of 4 μL DMSO stock in 5 mL of 0.1% TFA/ACN (8 μg/mL).
HPLC analysis is performed on a SYNERGI 4 micron Polar RP-80A, 250×4.6 mm column, using a flow rate of 1 mL/min, a 50 μL injection volume, column temperature of 25° C. and with UV detection at 227 nm. Most compounds are analyzed using a 13 min gradient (Method A) from 30 to 66% acetonitrile in aqueous 0.1% TFA, followed by a 1 min gradient back to 30% and a hold at 30% for 6 minutes. If the retention time is too long for this method, a 20 min gradient (Method B) of 30 to 90% acetonitrile, followed by a 1 min return to 30% and held for 9 min at 30% is employed.
The extent of hydrolysis is reported in Table 7 below as the % DTX formation based on relative peak areas.

CC(=O)O[C@@]12CO[C@@H]1C[C@H](O)[C@@]1(C)C(=O)[C@H](O)C3=C(C)[C@@H](OC(=O)[C@H](O)[C@@H](NC(=O)OC(C)(C)C)c4ccccc4)C[C@@](O)([C@@H](OC(=O)c4ccccc4)[C@H]21)C3(C)C [docetaxel]
Activated partial thromboplastin time (APTT) [1]: shortened
treatment related toxicity (body weight) (SUM-159 xenograft): severe
maximum tolerated dose for weekly treatment [2]: 20 mpk
MTD [3]: 20 mg/kg

CCN(CC)CCCC(=O)O[C@@H](C(=O)O[C@H]1C[C@@]2(O)[C@@H](OC(=O)c3ccccc3)[C@@H]3[C@]4(OC(C)=O)CO[C@@H]4C[C@H](O)[C@@]3(C)C(=O)[C@H](O)C(=C1C)C2(C)C)[C@@H](NC(=O)OC(C)(C)C)c1ccccc1.Cl [Compound 3, 2′-O-(4-Diethylaminobutanoyl) DTX Hydrochloride]
conversion of prodrug to docetaxel in tissue (docetaxel/Compound 3 ratio) (MDA-MB-231 xenograft): sustained conversion of the Compound 3 to docetaxel at the tumor site
Percentage of Hydrolysis (% DTX formation) ([4]; pH 2.5, 0 h): 0.00%
Percentage of Hydrolysis (% DTX formation) ([4]; pH 2.5, 5 h): 0.00%
Percentage of Hydrolysis (% DTX formation) ([4]; pH 2.5, 24 h): 0.00%
Percentage of Hydrolysis (% DTX formation) ([4]; pH 2.5, 48 h): 0.00%
Percentage of Hydrolysis (% DTX formation) ([4]; pH 2.5, 96 h): 0%
Percentage of Hydrolysis (% DTX formation) ([4]; pH 7.5, 0 h): 0.00%
Percentage of Hydrolysis (% DTX formation) ([4]; pH 7.5, 5 h): 45.76%
Percentage of Hydrolysis (% DTX formation) ([4]; pH 7.5, 24 h): 100.00%
Percentage of Hydrolysis (% DTX formation) ([4]; pH 7.5, 48 h): 100.00%
Percentage of Hydrolysis (% DTX formation) ([4]; pH 7.5, 96 h): 100%

CC(=O)O[C@@]12CO[C@@H]1C[C@H](O)[C@@]1(C)C(=O)[C@H](O)C3=C(C)[C@@H](OC(=O)[C@H](OC(=O)CCCN(C)C)[C@@H](NC(=O)OC(C)(C)C)c4ccccc4)C[C@@](O)([C@@H](OC(=O)c4ccccc4)[C@H]21)C3(C)C.Cl [Compound 4, 2′-O-[4-(N,N-Dimethylamino)butanoyl] DTX Hydrochloride]
Percentage of Hydrolysis (% DTX formation) ([4]; pH 2.5, 0 h): 0.00%
Percentage of Hydrolysis (% DTX formation) ([4]; pH 2.5, 5 h): 0.00%
Percentage of Hydrolysis (% DTX formation) ([4]; pH 2.5, 24 h): 0.00%
Percentage of Hydrolysis (% DTX formation) ([4]; pH 2.5, 48 h): 0.00%
Percentage of Hydrolysis (% DTX formation) ([4]; pH 2.5, 96 h): 0%
Percentage of Hydrolysis (% DTX formation) ([4]; pH 7.5, 0 h): 0.00%
Percentage of Hydrolysis (% DTX formation) ([4]; pH 7.5, 5 h): 76.07%
Percentage of Hydrolysis (% DTX formation) ([4]; pH 7.5, 24 h): 100.00%
Percentage of Hydrolysis (% DTX formation) ([4]; pH 7.5, 48 h): 100.00%
Percentage of Hydrolysis (% DTX formation) ([4]; pH 7.5, 96 h): 100%
